Laboratory results published in article PMC3979932 (Xenobiotica; the fate of foreign compounds in biological …, 2013).
Read-outs that look alike come from different tables or passages of the source.

Experiments:
[1] = molecular target: T1, human CYP2E1 (Supersomes) (Homo sapiens, UniProt P05181); details: recombinant enzyme, pH 7.4
[2] = molecular target: T2, CYP2E1 in human liver microsomes (HLM150) (Homo sapiens, UniProt P05181); details: pH 7.4
[3] = molecular target: T3, CYP2E1 (Homo sapiens, UniProt P05181)
[4] = molecular target: T4, CYP2E1 activity with HLM150 (Homo sapiens, UniProt P05181)
[5] = molecular target: T3, CYP2E1; experiment: in vitro; details: recombinant enzyme, pH 7.4
[6] = molecular target: T3, CYP2E1; experiment: in vitro; details: microsomes, pH 7.4
[7] = molecular target: T4, CYP2E1 activity with HLM150; experiment: Steady-state inhibition kinetics of 4-nitrophenol oxidation, HLM150
[8] = molecular target: T2, CYP2E1 in human liver microsomes (HLM150)
[9] = molecular target: T3, CYP2E1; experiment: Steady-state inhibition kinetics of 4-nitrophenol oxidation, CYP2E1 Supersomes; details: for Ki: Ki,ap, apparent, catalytic site, 95% CI in parentheses; for Mechanism: most probable inhibition mechanism among 10 models
[10] = molecular target: T3, CYP2E1; details: human, recombinant enzyme, pH 7.4
[11] = molecular target: T1, human CYP2E1 (Supersomes)
[12] = molecular target: T3, CYP2E1; details: human, microsomes, pH 7.4
[13] = system: CYP2E1; details: CYP2E1 Supersomes; ref Hartman et al., 2012; cited from earlier work

T3 sequence (P05181 whole entry): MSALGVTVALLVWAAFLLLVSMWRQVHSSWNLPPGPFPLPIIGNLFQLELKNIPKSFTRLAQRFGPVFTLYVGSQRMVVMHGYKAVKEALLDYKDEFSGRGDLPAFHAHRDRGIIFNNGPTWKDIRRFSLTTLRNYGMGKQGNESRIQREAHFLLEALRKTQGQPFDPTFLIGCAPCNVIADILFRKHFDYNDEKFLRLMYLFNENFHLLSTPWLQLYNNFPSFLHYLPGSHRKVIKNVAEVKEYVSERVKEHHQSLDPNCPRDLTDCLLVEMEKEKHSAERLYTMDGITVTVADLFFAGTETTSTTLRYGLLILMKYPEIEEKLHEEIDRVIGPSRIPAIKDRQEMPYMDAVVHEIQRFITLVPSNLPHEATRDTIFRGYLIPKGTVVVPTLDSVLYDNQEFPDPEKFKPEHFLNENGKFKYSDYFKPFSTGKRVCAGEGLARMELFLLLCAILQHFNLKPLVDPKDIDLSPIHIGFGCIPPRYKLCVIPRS
T1 sequence (P05181 whole entry): as above
T4 sequence (P05181 whole entry): as above
T2 sequence (P05181 whole entry): as above

IC50 [1] | IC50 [2] | Mechanism [3] | Ki,ap ([3]; recombinant enzyme) | Ki,ap [4] | Mechanism [4] | activity at 30 min [5] [%] | activity at 30 min [6] [%] | IC50 at 30 min [5] [µM] | SMILES | Ki [7] [µM] | IC50 [8] [µM] | Ki [9] [µM] | activity at 30 min [10] [%] | IC50 [11] [µM] | activity at 30 min [12] [%] | Mechanism [9] | Ks (high affinity apparent binding constant during styrene metabolism) [13] [µM] | Ki ([7]; Ki,ap, HLM150, apparent, catalytic site, 95% CI in parentheses) [µM] | Ki ([7]; Ksi,ap, HLM150, apparent, cooperative site, 95% CI in parentheses) [µM]
13 000 (2800–23 000) μM | 14 000 (6600–21 000) μM | Competitive | 29 000 (19 000–52 000) μM | 17 000 (15 000–19 000) μM | Competitive | 9.2 | 18 | – | OCC(O)c1ccccc1 (racemic) [R/S-Styrene glycol, (R/S)-1,2-phenylethanediol] | – | – | – | – | – | – | – | – | – | –
– | – | Mixed cooperative substrate | – | – | – | 16 | 19 | 24 | C=Cc1ccc(O)cc1 [4-Vinylphenol, 4-vinylphenol] | 61 | 38 | 47 | – | – | – | – | – | – | –
– | – | – | – | – | – | – | – | – | c1ccc(C2CO2)cc1 (stereo not shown) [Styrene oxide, 8,9-styrene oxide] | 160 | 150 | 110 | 13 | 55 | 28 | Mixed cooperative substrate | – | – | –
– | – | – | – | – | – | – | – | – | C=Cc1ccccc1 [Styrene, styrene] | – | 45 | 67 | 11 | 75 | 20 | Mixed cooperative substrate | 110 | 18 | 58
